Our source for the TGI and GI50 values is PubChem BioAssay (NCI).

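Results reflect a 48-hour exposure of cells in 96-well plates to compound at five concentrations. GI50 = concentration required for 50% inhibition of growth. TGI denotes the concentration required for complete inhibition of growth.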 Bounds are passed on as bounds.

Test systems include CCRF-CEM leukemia; HOP-62 NSCLC; HOP-92 NSCLC; M14 melanoma; MOLT-4 leukemia; OVCAR-5 ovarian; SW-620 colon; T-47D breast; UACC-257 melanoma; UO-31 renal.
Experiment in all cases: NCI anticancer screen, dose series, 48 h

`N#Cc1c(-c2nc3ccccc3s2)c(=O)oc2cc(O)ccc12`: the TGI with CCRF-CEM leukemia was over 100 µM; with HOP-62 NSCLC it was 57.3 µM; in the test on HOP-92 NSCLC it was 46.3 µM; with M14 melanoma, over 100 µM; in the test on MOLT-4 leukemia it was over 100 µM; in the test on OVCAR-5 ovarian, over 100 µM. The TGI is over 100 µM in the test on SW-620 colon, 78.2 µM with T-47D breast, over 100 µM in the test on UACC-257 melanoma and 74.9 µM with UO-31 renal.
Turning to `Cc1ncc(CN=Cc2ccc(Cl)cc2)c(N)n1`, the TGI with CCRF-CEM leukemia, with HOP-62 NSCLC, in the test with HOP-92 NSCLC, in the test on M14 melanoma, in the test with MOLT-4 leukemia and in the test with OVCAR-5 ovarian was over 100 µM throughout. The TGI in the test with SW-620 colon, in the test with T-47D breast, in the test with UACC-257 melanoma and in the test on UO-31 renal was over 100 µM each time.
On to `ClCc1cccc(Cn2cnc3c(Cl)ncnc32)c1`, for which the GI50 is 1.91 µM with CCRF-CEM leukemia; 2.6 µM in the test with HOP-62 NSCLC; 2.46 µM with HOP-92 NSCLC; 1.66 µM with M14 melanoma; 15.8 µM in the test with MOLT-4 leukemia; 2.08 µM in the test on OVCAR-5 ovarian. Moreover, the GI50 in the test on SW-620 colon was 2.12 µM; in the test with T-47D breast, 3.02 µM; with UACC-257 melanoma, 20.2 µM; in the test with UO-31 renal, 14.4 µM. The TGI turned out to be 3.85 µM with CCRF-CEM leukemia; 5.11 µM in the test on HOP-62 NSCLC; 6.22 µM in the test on HOP-92 NSCLC; 3.31 µM with M14 melanoma; 37.4 µM in the test on MOLT-4 leukemia; 4.32 µM with OVCAR-5 ovarian. The TGI came out at 4.33 µM with SW-620 colon, 12.3 µM in the test with T-47D breast, 37.1 µM in the test with UACC-257 melanoma and 35.9 µM in the test on UO-31 renal.
`COc1ccc2c(c1)[nH]c(=O)c1c3cc(C)c(C)cc3cn21`: the GI50 in the test on CCRF-CEM leukemia was under 0.0149 µM; with HOP-62 NSCLC, under 0.0185 µM; in the test with HOP-92 NSCLC, 0.485 µM; in the test with M14 melanoma it was under 0.01 µM; in the test with MOLT-4 leukemia, under 0.0176 µM; in the test with OVCAR-5 ovarian, 0.0561 µM. Further, the GI50 was under 0.01 µM with SW-620 colon, 1.17 µM in the test on T-47D breast, 12.8 µM with UACC-257 melanoma and under 0.0119 µM with UO-31 renal. The TGI in the test on HOP-62 NSCLC came out at 1.9 µM; in the test on HOP-92 NSCLC, 2.32 µM; in the test on M14 melanoma, 1.2 µM; with MOLT-4 leukemia it was 0.281 µM; in the test on OVCAR-5 ovarian, 2.92 µM; with SW-620 colon, 1.47 µM. Also, the TGI in the test with T-47D breast came out at 2.9 µM; in the test on UACC-257 melanoma, 26.4 µM; with UO-31 renal it was 1.72 µM.
Take `Cc1ccc(CNc2c3ccccc3nc3ccccc23)cc1`: the GI50 with CCRF-CEM leukemia is 2.48 µM; in the test with HOP-62 NSCLC, 3.58 µM; in the test with HOP-92 NSCLC, 1.36 µM; with M14 melanoma, 1.53 µM; in the test with MOLT-4 leukemia, 2.85 µM; in the test with OVCAR-5 ovarian it was 1.99 µM. In addition, the GI50 in the test on SW-620 colon is 1.62 µM; with T-47D breast, 1.87 µM; in the test on UACC-257 melanoma it was 2.17 µM; with UO-31 renal, 1.12 µM. Moreover, the TGI in the test with CCRF-CEM leukemia is 12.6 µM; in the test with HOP-62 NSCLC it was 16.8 µM; with HOP-92 NSCLC it was 5.05 µM; in the test with M14 melanoma, 3.24 µM; in the test with MOLT-4 leukemia, 10.5 µM; in the test with OVCAR-5 ovarian it was 8.08 µM. Moreover, the TGI in the test on SW-620 colon came to 5.32 µM; in the test with T-47D breast it was 4.83 µM; in the test on UACC-257 melanoma, 5.06 µM; in the test on UO-31 renal, 3.17 µM.
As to `Cc1ccc(-[n+]2c3cc(N)c(C)cc3nc3cc(C)c(Nc4ccccc4)cc32)cc1`, the GI50 in the test with CCRF-CEM leukemia was 0.223 µM; with HOP-62 NSCLC it was 0.0472 µM; in the test on HOP-92 NSCLC it was 0.15 µM; with M14 melanoma, 0.134 µM; with MOLT-4 leukemia, 0.244 µM; in the test with OVCAR-5 ovarian, 0.357 µM. Moreover, the GI50 was 0.0708 µM in the test on SW-620 colon, 0.0886 µM with T-47D breast, 0.242 µM in the test with UACC-257 melanoma and 0.27 µM with UO-31 renal. Moreover, the TGI in the test on CCRF-CEM leukemia is over 100 µM; with HOP-62 NSCLC it was 0.397 µM; with HOP-92 NSCLC it was 0.556 µM; in the test with M14 melanoma, 0.428 µM; with MOLT-4 leukemia it was 1.69 µM; in the test on OVCAR-5 ovarian, 1.48 µM. Further, the TGI with SW-620 colon came out at 1.08 µM; with T-47D breast, 1.02 µM; in the test with UACC-257 melanoma, 0.952 µM; with UO-31 renal, 1.03 µM.
With `COc1cc(-c2nn(-c3ccc(NC(=O)c4ccc(Cl)c(Cl)c4)cc3)cc2-c2ccncc2)ccc1Cl`, the GI50 in the test with CCRF-CEM leukemia was 4.56 µM; in the test on HOP-62 NSCLC, 2.28 µM; with HOP-92 NSCLC it was over 100 µM; in the test with M14 melanoma it was 22.4 µM; in the test with MOLT-4 leukemia, 5.29 µM; with OVCAR-5 ovarian, over 100 µM. Moreover, the GI50 is 5.63 µM in the test on SW-620 colon, 3.76 µM in the test on T-47D breast, over 100 µM in the test with UACC-257 melanoma and 2.73 µM in the test on UO-31 renal. Further, the TGI was over 100 µM in the test with CCRF-CEM leukemia; 7.51 µM in the test with HOP-62 NSCLC; over 100 µM with HOP-92 NSCLC; over 100 µM with M14 melanoma; over 100 µM with MOLT-4 leukemia; over 100 µM with OVCAR-5 ovarian. Besides, the TGI is over 100 µM in the test on SW-620 colon, over 100 µM in the test on T-47D breast, over 100 µM in the test with UACC-257 melanoma and 9.85 µM in the test on UO-31 renal.
As for `COc1cc2c(cc1OC)C(=O)/C(=C/c1cccc(OCC(=O)c3ccccc3)c1)C2`, the GI50 is 2.17 µM in the test on CCRF-CEM leukemia; 35.8 µM with HOP-62 NSCLC; 0.569 µM in the test with HOP-92 NSCLC; 34.2 µM in the test on M14 melanoma; 2.58 µM in the test on MOLT-4 leukemia; 73.9 µM in the test with OVCAR-5 ovarian. In addition, the GI50 was 38.3 µM with SW-620 colon, 4.34 µM with T-47D breast, 49.1 µM in the test with UACC-257 melanoma and 6.93 µM in the test on UO-31 renal. Besides, the TGI was 7.31 µM in the test on CCRF-CEM leukemia; over 100 µM with HOP-62 NSCLC; 27.8 µM with HOP-92 NSCLC; over 100 µM with M14 melanoma; 14 µM with MOLT-4 leukemia; over 100 µM with OVCAR-5 ovarian. For the same compound, the TGI in the test with SW-620 colon was over 100 µM; in the test on T-47D breast, 68.8 µM; with UACC-257 melanoma, over 100 µM; in the test on UO-31 renal, over 100 µM.
